Where a name gives a salt, the structure may show the parent alone.

This experiment relates to A/PuertoRico/8/1934 (H1N1 H274Y). Format: cell-based, influenza A virus.
Usually IC50 stands for the concentration needed to halve the response being measured. On to `O=C(c1ccc(OCCCc2cnc[nH]2)cc1)C1CC1` [Ciproxifan], for which the IC50 amounted to 5.9 µM.
`CC(COc1ccccc1)NC(C)C(O)c1ccc(O)cc1` (stereo not drawn) [Isoxsuprine, Isoxsuprine hydrochloride] showed an IC50 of 9.3 µM.
Turning to `CCCN(CCc1cccs1)[C@H]1CCc2c(O)cccc2C1` [Rotigotine], it took 8.6 µM to reach half-maximal inhibition (IC50).
